Test results from article PMC7914897, “Cytotoxic Potential of a-Azepano- and 3-Amino-3,4-SeCo-Triterpenoids” (International Journal of Molecular Sciences, 2021).

Assays:
[1] = system: TK-10 (Renal cancer); assay: NCI-60 screen (SRB, 48 h); conditions: Homo sapiens
[2] = system: U251 (CNS cancer); assay: NCI-60 screen (SRB, 48 h); conditions: Homo sapiens
[3] = system: BT-549 (Breast cancer); assay: NCI-60 screen (SRB, 48 h); format: cell-based; conditions: Homo sapiens
[4] = system: CAKI-1 (Renal cancer); assay: NCI-60 screen (SRB, 48 h); conditions: Homo sapiens
[5] = system: PC-3 (Prostate cancer); assay: NCI-60 screen (SRB, 48 h); conditions: Homo sapiens
[6] = system: CCRF-CEM (Leukemia); assay: NCI-60 screen (SRB, 48 h); conditions: Homo sapiens
[7] = system: SK-MEL-5 (Melanoma); assay: NCI-60 screen (SRB, 48 h); conditions: Homo sapiens
[8] = system: SF-268 (CNS cancer); assay: NCI-60 screen (SRB, 48 h); conditions: Homo sapiens
[9] = system: HCT-116 (Colon cancer); assay: NCI-60 screen (SRB, 48 h); conditions: Homo sapiens
[10] = system: HL-60(TB) (Leukemia); assay: NCI-60 screen (SRB, 48 h); format: cell-based; conditions: Homo sapiens
[11] = system: RXF 393 (Renal cancer); assay: NCI-60 screen (SRB, 48 h); conditions: Homo sapiens
[12] = system: SF-539 (CNS cancer); assay: NCI-60 screen (SRB, 48 h); conditions: Homo sapiens
[13] = system: SK-OV-3 (Ovarian cancer); assay: NCI-60 screen (SRB, 48 h); conditions: Homo sapiens
[14] = system: FaDu (hypopharyngeal carcinoma); assay: SRB cytotoxicity assay, 72 h; format: cell-based, human; conditions: Homo sapiens, cut-off 30 µM, read-out: EC50
Method: (§1) The cytotoxicity of compounds 1–20 was evaluated by means of a colorimetric sulforhodamine B (SRB) assay. For all compounds, the EC50 values were determined for the human tumor cell lines A375 (malignant melanoma), HT29 (colorectal carcinoma), MCF-7 (breast carcinoma), A2780 (ovarian carcinoma), FaDu (hypopharyngeal carcinoma), and NIH 3T3 (non-malignant mouse fibroblasts).
(§2) In short, exponentially growing cells were seeded into 96-well plates on day 0 at the appropriate cell densities to prevent confluence of the cells during the period of experiment. After 24 h, the cells were treated with serial dilutions of the compounds (0–30 µM) for 72 h. The final concentration of DMSO never exceeded 0.5%, which was non-toxic to the cells. After a 72 h treatment, the supernatant medium from the 96-well plates was discarded, and the cells were fixed with 10% TCA. For a thorough fixation, the plates were allowed to rest at 4 °C. After fixation, the cells were washed in a strip washer. The washing was done four times with water using alternate dispensing and aspiration procedures. The plates were then dyed with 100 µL of 0.4% SRB for about 20 min. After dying, the plates were washed with 1% acetic acid to remove the excess of the dye and allowed to air-dry overnight. Tris base solution (200 µL, 10 mM) was added to each well and absorbance was measured at λ = 570 nm (using a 96 well plate reader, Tecan Spectra, Crailsheim, Germany). The percentages of surviving cells relative to untreated controls were determined.

[15] = system: HT29 (colorectal carcinoma); assay: SRB cytotoxicity assay, 72 h; format: cell-based, human; conditions: Homo sapiens, HT-29; HT29, 72 h, cut-off 30 µM; read-out: EC50
Method: as §1, §2

[16] = system: A2780 (ovarian carcinoma); assay: SRB cytotoxicity assay, 72 h; format: cell-based, human; conditions: Homo sapiens; A2780, 72 h, cut-off 30 µM; read-out: EC50
Method: as §1, §2

[17] = system: MCF-7 (breast carcinoma); assay: SRB cytotoxicity assay, 72 h; format: cell-based, human; conditions: Homo sapiens, MCF7; MCF-7, 72 h, cut-off 30 µM; read-out: EC50
Method: as §1, §2

[18] = system: A375 (malignant melanoma); assay: SRB cytotoxicity assay, 72 h; format: cell-based, human; conditions: Homo sapiens, A-375, 72 h, A375, 72 h, cut-off 30 µM; read-out: EC50
Method: as §1, §2

[19] = system: HT29 (Colon cancer); assay: NCI-60 screen (SRB, 48 h); conditions: Homo sapiens
[20] = system: MDA-MB-435 (Melanoma); assay: NCI-60 screen (SRB, 48 h); format: cell-based
[21] = system: OVCAR-5 (Ovarian cancer); assay: NCI-60 screen (SRB, 48 h); conditions: Homo sapiens
[22] = system: NSC lung cancer subpanel; assay: NCI-60 screen, subpanel; conditions: Homo sapiens
[23] = system: IGROV1 (Ovarian cancer); assay: NCI-60 screen (SRB, 48 h); conditions: Homo sapiens

C=C(C)[C@@H]1CC[C@]2(C)[C@H](C=CC3=C4C[C@@](C)(CO)CC[C@]4(C)CC[C@]32C)[C@@]1(C)CCCN [Compound 20]
GI50 ([1]; TK-10): 1.78 µM
IC (TGI) ([1]; TK-10, 48 h, read-out: TGI): 3.36 µM
CC50 ([1]; TK-10, read-out: LC50): 6.37 µM
GI50 ([2]; U-251): 1.64 µM
IC (TGI) ([2]; U-251, 48 h, read-out: TGI): 3.32 µM
CC50 ([2]; U-251, read-out: LC50): 6.72 µM
GI50 ([3]; BT-549): 1.64 µM
IC (TGI) ([3]; BT-549, 48 h): 3.07 µM
CC50 ([3]; BT-549, read-out: LC50 (the source's name)): 5.78 µM
GI50 ([4]; CAKI-1): 1.52 µM
IC (TGI) ([4]; CAKI-1, 48 h, read-out: TGI): 2.85 µM
CC50 ([4]; CAKI-1, read-out: LC50): 5.34 µM
GI50 ([5]; PC-3): 1.7 µM
IC (TGI) ([5]; PC-3, 48 h, read-out: TGI): 3.28 µM
CC50 ([5]; PC-3, read-out: LC50): 6.33 µM
GI50 [6]: 2.12 µM
IC (TGI) ([6]; 48 h, read-out: TGI): 5.56 µM
CC50 ([6]; read-out: LC50): > 100 µM
GI50 ([7]; SK-MEL-5): 1.72 µM
IC (TGI) ([7]; SK-MEL-5, 48 h, read-out: TGI): 3.19 µM
GI50 ([8]; SF-268): 1.61 µM
IC (TGI) ([8]; SF-268, 48 h, read-out: TGI): 3.25 µM
CC50 ([8]; SF-268, read-out: LC50): 6.56 µM
GI50 ([9]; HCT-116): 1.69 µM
IC (TGI) ([9]; HCT-116, 48 h, read-out: TGI): 3.21 µM
CC50 ([9]; HCT-116, read-out: LC50): 6.08 µM
GI50 [10]: 1.58 µM
IC (TGI) ([10]; 48 h): 3.62 µM
GI50 ([11]; RXF 393): 1.62 µM
IC (TGI) ([11]; RXF 393, 48 h, read-out: TGI): 3.07 µM
CC50 ([11]; RXF 393, read-out: LC50): 5.81 µM
GI50 ([12]; SF-539): 1.73 µM
IC (TGI) ([12]; SF-539, 48 h, read-out: TGI): 3.13 µM
CC50 ([12]; SF-539, read-out: LC50): 5.67 µM
GI50 ([13]; SK-OV-3): 1.72 µM
IC (TGI) ([13]; SK-OV-3, 48 h, read-out: TGI): 3.17 µM
CC50 ([13]; SK-OV-3, read-out: LC50): 5.85 µM
EC50 [14]: 2.66 ± 0.2 µM
EC50 [15]: 1.88 ± 0.3 µM
EC50 [16]: 4.35 ± 0.2 µM
EC50 [17]: 2.84 ± 0.2 µM
EC50 [18]: 3.13 ± 0.1 µM
GI50 ([19]; HT-29): 1.63 µM
IC (TGI) ([19]; HT-29, 48 h, read-out: TGI): 3.28 µM
CC50 ([19]; HT-29, read-out: LC50): 6.59 µM
GI50 ([20]; Homo sapiens, MDA-MB-435): 1.78 µM
IC (TGI) ([20]; Homo sapiens, MDA-MB-435, 48 h, read-out: TGI): 3.2 µM
CC50 ([20]; Homo sapiens, MDA-MB-435, read-out: LC50 (the source's name)): 5.76 µM
Growth % of the Most Sensitive Cell Lines ([20]; MDA-MB-435, 1 dose 10 µM): −96.77%
GI50 ([21]; OVCAR-5): 1.71 µM
IC (TGI) ([21]; OVCAR-5, 48 h, read-out: TGI): 3.06 µM
CC50 ([21]; OVCAR-5, read-out: LC50): 5.57 µM
IC (TGI) ([22]; 48 h, read-out: TGI MG_MID): 3.38 µM
GI50 ([22]; read-out: GI50 MG_MID): 1.71 µM
CC50 ([22]; read-out: LC50 MG_MID): 6.24 µM
GI50 ([23]; IGROV-1): 1.5 µM
IC (TGI) ([23]; IGROV-1, 48 h, read-out: TGI): 2.95 µM
CC50 ([23]; IGROV-1, read-out: LC50): 5.8 µM
